Laboratory results from patent US9107900B2, “Use of dronedarone for the preparation of a medicament for use in the prevention of cardiovascular hospitalization or of morality” (SANOFI, priority 2008, dated 2015).
Structures can show the parent of a compound that is named as a salt.

Test system: patients having a history of atrial fibrillation or atrial flutter
Test: prospective, multinational, multicentre, double-blind clinical study versus placebo: cardiovascular hospitalizations and mortality
Type: in vivo, human
Description: The patients had to have a history of atrial fibrillation or flutter and/or could be in normal sinus rhythm or in atrial fibrillation or flutter at inclusion.
The patient recruitment was carried out by taking into account the following inclusion criteria:
• 1) One of the following risk factors had to be present: • age equal to or greater than 70 years, • hypertension (taking antihypertensives of at least two different classes), • diabetes, • history of cerebral stroke (transient ischemic event or completed cerebral stroke) or of systemic embolism, • left atrial diameter greater than or equal to 50 mm measured by echocardiography, • left ventricular ejection fraction less than 40%, measured by two-dimensional echography; or • age equal to or above 70, or even above 75, possibly combined with at least one of the risk factors below: • hypertension (taking antihypertensives of at least two different classes), • diabetes, • history of cerebral stroke (transient ischemic event or completed cerebral stroke) or of systemic embolism, • left atrial diameter greater than or equal to 50 mm measured by echocardiography, • left ventricular ejection fraction less than 40%, measured by two-dimensional echography; • 2) availability of an electrocardiogram carried out during the past 6 months in order to document the presence or the history of atrial fibrillation or flutter; • 3) availability of an electrocardiogram carried out during the past 6 months in order to document the presence or absence of normal sinus rhythm. […] Criteria Related to a Cardiac Condition: • Patients in permanent atrial fibrillation • Patients in unstable hemodynamic condition such as acute pulmonary edema within 12 hours prior to start of study medication; cardiogenic shock; treatment with IV pressor agents; patients on respirator; congestive heart failure of stage NYHA IV within the last 4 weeks; uncorrected, hemodynamically significant primary obstructive valvular disease; hemodynamically significant obstructive cardomyopathy; a cardiac operation or revascularization procedure within 4 weeks preceding randomization • Planned major non-cardiac or cardiac surgery or procedures including surgery for valvular heart disease, coronary artery bypass graft (CABG), percutaneous coronary intervention (PCI), or on urgent cardiac transplantation list • Acute myocarditis or constrictive pericarditis • Bradycardia<50 bpm and/or PR-interval>0.28 sec on the last 12-lead ECG. • Significant sinus node disease (documented pause of 3 seconds or more) or 2nd or 3rd degree atrioventricular block (AV-block) unless treated with a pacemaker. Criteria Related to Concomitant Medications:
Need of a concomitant medication that is prohibited in this trial, including the requirement for Vaughan Williams Class I and III anti-arrhythmic drugs, that would preclude the use of study drug during the planned study period, i.e. patients have to stop others antiarrhythmics such as Vaughan Williams Class I and III anti-arrhythmic drugs, for example amiodarone, flecamide, propafenone, quinidine, disopyramide, dofetilide, solatol.
• Plasma potassium<3.5 mmol/l (as anti-arrhythmic drugs can be arrhythmogenic in patients with hypokalemia, this must be corrected prior to randomization. • A calculated GFR at baseline<10 ml/min using the Cockroft Gault formula (GFR [ml/min]=(140−AGE [years]*WEIGHT [kilograms]*CONSTANT/CREATININE [μmol/L], where CONSTANT is […]).
Furthermore, the concomitant use of grapefruit juice and all potent inhibitors of CYP3A4 such as ketoconazole were prohibited.
Treatment was initiated using tablets containing either the placebo or an amount of dronedarone hydrochloride corresponding to 400 mg of dronedarone at a rate of twice a day with the morning and evening meal and more specifically at a rate of one tablet in the morning during or shortly after breakfast and one tablet in the evening during or shortly after dinner. […]

[1] = NYHA class III and LVEF below 0.35, stable, 400 mg BID, N = 24
[2] = NYHA class III congestive heart failure, stable hemodynamic condition, vs placebo
[3] = NYHA class III congestive heart failure, stable, vs placebo
[4] = all patients, treated group 2301 of 4628
[5] = all patients, treated group 2301 of 4628, 400 mg twice a day
[6] = congestive heart failure, LVEF below 0.35, stable, vs placebo
[7] = patients with a structural heart disease
[8] = patients with a structural heart disease, vs placebo
[9] = patients with coronary heart disease (668 treated patients)
[10] = patients with coronary heart disease, vs placebo
[11] = patients with permanent atrial fibrillation/flutter, vs placebo

CCCCc1oc2ccc(NS(C)(=O)=O)cc2c1C(=O)c1ccc(OCCCN(CCCC)CCCC)cc1 [dronedarone hydrochloride, 2-n-Butyl-3-[4-(3-di-n-butylaminopropoxy)benzoyl]-5-methylsulphonamidobenzofuran]
HR (95% CI): cardiovascular hospitalization and death (Left atrium diameter >=50 mm (N 955), vs placebo): 0.77 (0.63, 0.94) | decrease of cardiovascular hospitalization and death (Left atrium diameter >=50 mm, vs placebo): 23% | Endpoint's composition: Cardiovascular death [1]: 2 | Endpoint's composition: Cardiovascular hospitalization [1]: 10 | Endpoint's composition: Death from any cause [1]: 3 | Endpoint's composition: Non cardiovascular death [1]: 1 | number of events: death (NYHA class III congestive heart failure, stable (91 treated patients)): 12 events | number of events: cardiovascular hospitalization and death (NYHA class III congestive heart failure, stable hemodynamic condition (91 treated patients)): 40 events | decrease of cardiovascular hospitalization or death [2]: 44% | relative risk: cardiovascular hospitalization or death [2]: 0.56 | decrease of death [3]: 34% | relative risk: death [3]: 0.66 | HR (95% CI): cardiovascular hospitalization and death (Prior cerebrovascular accident or systemic embolism (N 616), vs placebo): 0.80 (0.62, 1.02) | decrease of cardiovascular hospitalization and death (Prior cerebrovascular accident or systemic embolism, vs placebo): 20% | number of arrhythmic deaths (deaths from cardiac arrhythmia) [4]: 26 arrhythmic deaths | number of cardiovascular deaths [4]: 65 cardiovascular deaths | number of deaths: mortality from any cause [4]: 116 deaths | number of events: cardiovascular hospitalizations [4]: 675 events | number of events: cardiovascular hospitalizations and sudden death [4]: 684 events | number of events: cardiovascular hospitalizations for atrial fibrillation or supraventricular arrhythmia [4]: 296 events | number of events: cardiovascular hospitalizations for transient ischemic event or stroke [4]: 43 events | number of events: hospitalizations associated with class IV congestive heart failure [4]: 42 events | number of events: hospitalizations associated with congestive heart failure [4]: 112 events | number of sudden deaths [4]: 14 sudden deaths | number of events: cardiovascular hospitalizations and cardiovascular mortality [5]: 701 events | number of events: cardiovascular hospitalizations and mortality (principal judgement criterion) [5]: 734 events | number of events: death (congestive heart failure, LVEF below 0.35, stable (92 treated patients)): 10 events | decrease of cardiovascular hospitalization or death [6]: 32% | decrease of death [6]: 45% | relative risk: cardiovascular hospitalization or death [6]: 0.68 | relative risk: death [6]: 0.55 | number of events: cardiovascular hospitalization and death (congestive heart failure, left ventricular ejection fraction below 0.35, stable hemodynamic condition (92 treated patients)): 39 events | reduction in the risk of sudden death (patients not taking diuretics, vs placebo): 34% | number of events: cardiovascular hospitalizations and mortality (patients who developed permanent atrial fibrillation/flutter): 29 events | number of events: cardiovascular death [7]: 48 events | number of events: cardiovascular hospitalization [7]: 452 events | number of events: cardiovascular hospitalization or death [7]: 486 events | number of events: death [7]: 77 events | decrease of cardiovascular deaths [8]: 33% | decrease of cardiovascular hospitalization [8]: 24% | decrease of cardiovascular hospitalization or death [8]: 24% | decrease of death [8]: 24% | relative risk: cardiovascular death [8]: 0.67 | relative risk: cardiovascular hospitalization [8]: 0.76 | relative risk: cardiovascular hospitalization or death [8]: 0.76 | relative risk: death [8]: 0.76 | number of events: cardiovascular death [9]: 26 events | number of events: cardiovascular hospitalization [9]: 233 events | number of events: cardiovascular hospitalization or death [9]: 252 events | number of events: death [9]: 39 events | decrease of cardiovascular death [10]: 40% | decrease of cardiovascular hospitalization [10]: 26% | decrease of cardiovascular hospitalization or death [10]: 27% | decrease of death [10]: 36% | relative risk: cardiovascular death [10]: 0.602 | relative risk: cardiovascular hospitalization [10]: 0.740 | relative risk: cardiovascular hospitalization or death [10]: 0.733 | relative risk: death [10]: 0.643 | reduction in cardiovascular hospitalizations and mortality [11]: 33% | relative risk: cardiovascular hospitalizations and mortality [11]: 0.67 | patients who developed permanent atrial fibrillation/flutter (treated group 2301 of 4628, p<0.001 vs placebo (294)): 178 patients | decrease of cardiovascular hospitalization associated with class IV congestive heart failure (vs placebo, all patients): 22% | decrease of cardiovascular hospitalization associated with congestive heart failure (vs placebo, all patients): 14.5% | reduction in cardiovascular hospitalizations (vs placebo, all patients): 25.5% | reduction in cardiovascular hospitalizations and cardiovascular deaths (vs placebo, all patients): 25.5% | reduction in cardiovascular hospitalizations and sudden deaths (vs placebo, all patients): 25.5% | reduction in cardiovascular hospitalizations for atrial fibrillation (vs placebo, all patients): 38.4% | reduction in cardiovascular hospitalizations for transient ischemic event or stroke (vs placebo, all patients): 34% | reduction in cardiovascular mortality (vs placebo, all patients): 30.2% | reduction in sudden death (vs placebo, all patients): 59.5% | reduction in the risk of a first cardiovascular hospitalization not due to a supraventricular arrhythmia (vs placebo, all patients): 14.5% | reduction of arrhythmic death (vs placebo, all patients): 45% | reduction of death (any cause) (vs placebo, all patients): 15.6% | relative risk: arrhythmic death (vs placebo, all patients): 0.55 | relative risk: cardiovascular hospitalizations (vs placebo, all patients): 0.745 | relative risk: cardiovascular hospitalizations and cardiovascular deaths (vs placebo, all patients): 0.745 | relative risk: cardiovascular hospitalizations and sudden deaths (vs placebo, all patients): 0.743 | relative risk: cardiovascular hospitalizations for atrial fibrillation or supraventricular arrhythmia (vs placebo, all patients): 0.616 | relative risk: cardiovascular hospitalizations for transient ischemic event or stroke (vs placebo, all patients): 0.66 | relative risk: cardiovascular mortality (vs placebo, all patients): 0.698 | relative risk: hospitalizations associated with class IV congestive heart failure (vs placebo, all patients): 0.78 | relative risk: hospitalizations associated with congestive heart failure (vs placebo, all patients): 0.855 | relative risk: mortality from any cause (vs placebo, all patients): 0.844 | relative risk: sudden death (vs placebo, all patients): 0.405 | relative risk: cardiovascular hospitalizations and deaths (vs placebo, all patients, 400 mg twice a day): 0.758 | reduction in cardiovascular hospitalizations and deaths (vs placebo, all patients, x=1-relative risk): 24.2%
